In patent publication US20200215099A1, “NON-ANTICOAGULANT SULFATED OR SULFONATED POLYSACCHARIDES” (Baxalta Incorporated, priority 2012, published 2020):
Values after ≈ are worked out from the molar mass of the structure shown. “Also recorded” adds a separate entry of the source. Like-named read-outs stand apart in the source and are kept apart here. One block for each molecule: values may come before it.

Columns and labels:
[1] = test system: FVIII-inhibited plasma; assay: Thrombin generation assay (CAT) in FVIII-inhibited plasma; type: biochemical, human; details: for EC50: half maximal thrombin peak
Method: The procoagulant activity of the sulfated polysaccharides was assessed by the Thrombin Generation Assay (TGA). The influence of each sulfated polysaccharide on thrombin generation was measured in duplicate via CAT in a Fluoroskan Ascent® reader (Thermo Labsystems, Helsinki, Finland; filters 390 nm excitation and 460 nm emission) following the slow cleavage of the fluorogenic substrate Z-Gly-GIy-Arg-AMC (Hemker H C. Pathophysiol Haemost Thromb (2003) 33(4):15). To each well of a 96 well microplate (Immulon 2HB, clear U-bottom; Thermo Electron) 80 μL of pre-warmed (37° C.) goat anti FVIII antibody treated human normal plasma pool was added. For triggering thrombin generation by tissue factor, 104 of PPP reagent containing a certain amount of recombinant human tissue factor (rTF) and phospholipid vesicles composed of phosphatidylserine, phosphatidylcholine and phosphatidylethanolamine (final concentration of 4 μM) (Thrombinoscope BV, Maastricht, The Netherlands) was added. For studying the procoagulant activity of sulfated polymers a final TF concentration of 1 pM was used to provide FVIII and TFPI sensitivity of the test system. Just prior to putting the plate into the pre-warmed (37° C.) reader, 10 µL of test or reference sample or calibrator compound was added. Thrombin generation was started by dispensing 204 of FluCa reagent (Thrombinoscope BV, Maastricht, The Netherlands) containing fluorogenic substrate and Hepes buffered CaCl2 (100 mM) into each well and fluorescence intensity was recorded at 37° C.
The parameters of the resulting thrombin generation curves were calculated using the Thrombinoscope™ software (Thrombinoscope BV, Maastricht, The Netherlands) and thrombin calibrator to correct for inner filter and substrate consumption effects (Hemker H C, Pathophysiol Haemost Thromb (2003) 33(4):15). With the thrombin calibrator as a reference, the molar concentration of thrombin in the test wells was calculated by the software. The thrombin amounts at the peak and peak times of each thrombin generation curve (peak thrombin, nM) were plotted against sulfated polysaccharide concentrations resulting in the procoagulant profile of these compounds. The thrombin generation assay results are illustrated in the figures appended hereto. From these plots half maximal effective concentrations (EC50) values are determined using a sigmoidal curve fit. The EC50 represents the concentration at which the half maximal thrombin peak is reached.

[2] = test system: normal human plasma; assay: Activated partial thromboplastin time assay (aPTT); type: biochemical; details: for Ratio aPTT/CAT: 50% increase clotting time / CAT EC50; for 50% Increase Clotting Time: concentration where clotting time is 50% increased over normal plasma control; for anticoagulant activity (in words): aPTT compared with procoagulant CAT concentration
Method: The aPTT assay was performed to study anticoagulant activities of NASP. In brief, 50 μL of thawed normal human plasma pool (George King Biomedical, Overland Park, Kans.) was mixed with 5 μL of NASP sample (0-60 μg/mL final plasma concentration). NASPs were diluted in imidazole buffer (3.4 g/L imidazole; 5.85 g/L NaCl, pH 7.4) containing 1% albumin (Baxter, Austria). After addition of 50 μL aPTT reagent (STA APTT, Roche) the samples were incubated for 4 min at 37° C. Clotting was initiated by 50 μL of 25 mM CaCl2 solution (Baxter, Austria) and recorded for up to 5 min. All pipetting steps and clotting time measurements were carried out with an ACL Pro Elite (Instrumentation Laboratory, Bedford, Mass.) instrument. Samples were run in duplicate.
For data analysis, clotting time is plotted against the NASP concentration. Concentrations where the clotting time is 50% increased over the normal plasma control are determined using a linear curve fit.

[3] = biological target: T1, full-length TFPI (Homo sapiens, UniProt P10646); assay: Dilute prothrombin time assay with added TFPI (TFPI-dPT); type: biochemical; details: for EC50 TFPI-dPT: normal human plasma with rec. FL-TFPI; for reversal of the effect of rec. FL-TFPI (in words): normal human plasma
T1 construct: 0.5 μg/mL full-length TFPI (aa 1-276, constitutively produced by SKHep1); made in house; host or cells: SKHep1
T1 sequence (P10646 29-304): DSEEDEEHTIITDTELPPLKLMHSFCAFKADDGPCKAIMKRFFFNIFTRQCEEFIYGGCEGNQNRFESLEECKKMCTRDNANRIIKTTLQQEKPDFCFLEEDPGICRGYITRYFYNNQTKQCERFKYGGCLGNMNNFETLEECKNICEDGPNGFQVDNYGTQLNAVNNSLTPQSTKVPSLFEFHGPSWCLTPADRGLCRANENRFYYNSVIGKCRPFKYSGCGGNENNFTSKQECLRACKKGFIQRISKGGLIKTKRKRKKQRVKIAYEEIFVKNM
Method: A dilute prothrombin time assay with added TFPI (TFPI-dPT) was used to evaluate the TFPI-inhibiting effect of the different NASPs. Pooled normal human plasma (George King Biomedical, Overland Park, Kans.) was pre-incubated with 0.5 μg/mL full-length TFPI (aa 1-276, constitutively produced by SKHep1) and the respective NASP (0-5 μg/mL) for 15 min at RT. TF reagent TriniClot PT Excel S (Trinity Biotech, Wicklow, Ireland), diluted in Hepes-buffered saline 1:200 with 0.5% BSA was added to the plasma samples on an ACL Pro Elite hemostasis analyzer (Instrumentation Laboratory, Bedford, Mass.). Clotting was initiated with 25 mM CaCl2). The volume ratio of plasma:TF:CaCl2 was 1:1:1.
For data analysis, TFPI-dPT is plotted against the log concentration. Half maximal effective concentrations (EC50) values are determined using a sigmoidal curve fit.

[4] = test system: FVIII-inhibited human whole blood; assay: Rotation thromboelastometry (ROTEM); details: ROTEM, 0.044 pM TF
Method: NASPs (0.4-11 μg/mL) were studied in fresh citrated human whole blood by rotation thromboelastometry (ROTEM), an assay that allows continuous visco-elastic assessment of whole blood clot formation and firmness. Blood was incubated with anti-human FVIII plasma raised in goat (Baxter Bioscience, Austria) at 50 BU/mL to simulate hemophilic conditions. Clotting was triggered with 0.044 pM tissue factor (TF) (PRP reagent, Thrombinoscope BV) in the presence of 40 μg/mL CTI (Haematologic Technologies Inc., Essex Junction, Vt., USA). Then 300 μL of the pre-warmed (37° C.) FVIII-inhibited blood was recalcified with 20 μL of a 0.2 M CaCl2 solution. Clot formation was monitored using a ROTEM instrument (Pentapharm Munich, Germany) at 37° C. The final assay concentration of rTF was 44 fM. The ROTEM recording was started immediately and measured for at least 120 min. Each blood sample was analyzed in two independent measurements.
The thromboelastographic parameters of clotting time (CT), clot formation time (CFT) and maximum clot firmness (MCF) were recorded in accordance with the manufacturer's instructions. The first derivative of the thromboelastogram data is plotted to obtain a graph of velocity (mm/s) against time (s). From this graph, the maximum velocity (maxV) and the time at which the maximum velocity is reached (maxV-t) are also determined.

[5] = test system: contact pathway; assay: CAT in normal plasma with and without CTI; type: biochemical; details: for concentration activating the contact pathway: normal plasma, 1 pM hTF, 4 μM PL, ±41 μg/mL CTI

Molecule: 6-carboxyicodextrin [reference compound]
- procoagulant activity (in words) [1]: not procoagulant

Molecule: Cellopentaose
- procoagulant activity (in words) [1]: substantial procoagulant activity
- EC50 ([1]; 1 pM hTF, 4 μM PL): 1.9 µg/mL

Molecule: Cellotetraose
- EC50 ([1]; 1 pM hTF, 4 μM PL): 4.8 µg/mL

Molecule: Cellotriose
- EC50 ([1]; 1 pM hTF, 4 μM PL): 30.9 µg/mL

Molecule: Fucoidan [Fucoidan (Control), reference compound]
- Ratio aPTT/CAT [2]: 23.3
- 50% Increase Clotting Time [2]: 7.0 µg/mL
- EC50 ([1]; 1 pM hTF, 4 μM PL): 0.3 µg/mL

Molecule: Maltopentaose
- procoagulant activity (in words) [1]: substantial procoagulant activity
- EC50 ([1]; 1 pM hTF, 4 μM PL): about 2 μg/mL
- EC50 ([1]; 1 pM hTF, 4 μM PL, listed as maltopentose): 2.1 µg/mL

Molecule: icodextrin [unsulfated icodextrin, reference compound]
- procoagulant activity (in words) [1]: not procoagulant

Molecule: sulfated 6-carboxy-icodextrin [6-carboxy-Icodextrin (unfractionated, batch 1)]
- EC50 TFPI-dPT [3]: 0.26 µg/mL
- reversal of the effect of rec. FL-TFPI (in words) ([3]; listed as sulfated 6-carboxy-icodextrin (21.6 kDa, 10.6% S)): reverses the effect of rec. FL-TFPI in plasma
- Ratio aPTT/CAT [2]: 80.0
- anticoagulant activity (in words) [2]: non-anticoagulant at its optimal procoagulant concentration
- 50% Increase Clotting Time [2]: 3.2 µg/mL
- EC50 ([1]; 1 pM hTF, 4 μM PL, listed as sulfated 6-carboxyicodextrin (21.6 kDa, 10.6% S)): 0.04 µg/mL
- procoagulant activity (in words) ([1]; listed as sulfated 6-carboxyicodextrin (21.6 kDa, 10.6% S)): procoagulant at very low concentrations

Molecule: sulfated 6-carboxy-icodextrin [6-carboxy-Icodextrin (unfractionated, batch 2)]
- restoration of coagulation (in words) ([4]; listed as sulfated 6-carboxy-icodextrin (35 kDa; 10.1% S)): restores coagulation in human FVIII-inhibited blood
- Ratio aPTT/CAT [2]: 57.0
- 50% Increase Clotting Time [2]: 4.0 µg/mL
- EC50 ([1]; 1 pM hTF, 4 μM PL, listed as sulfated 6-carboxyicodextrin (35 kDa, 10.1% S)): 0.07 µg/mL
- procoagulant activity (in words) ([1]; listed as sulfated 6-carboxyicodextrin (35 kDa, 10.1% S)): procoagulant at very low concentrations

Molecule: sulfated maltopentaose [Maltopentaose (Baxter)]
- EC50 TFPI-dPT [3]: 0.15 µg/mL
- reversal of the effect of rec. FL-TFPI (in words) ([3]; listed as sulfated maltopentaose (15% S)): reverses the effect of rec. FL-TFPI in plasma; also recorded: reverses the effect of recombinant Full Length-Tissue Factor Pathway Inhibitor
- restoration of coagulation (in words) [4]: restore coagulation parameters of FVIII-inhibited whole blood
- restoration of coagulation (in words) ([4]; listed as sulfated maltopentose (15% S)): restores coagulation to normal in FVIII-inhibited blood
- activation of the contact pathway (in words) [5]: No activation of the contact pathway
- concentration activating the contact pathway [5]: > 33000 ng/mL
- Ratio aPTT/CAT [2]: 1.4
- anticoagulant activity (in words) [2]: become anticoagulant within their procoagulant window
- 50% Increase Clotting Time [2]: 3.3 µg/mL
- procoagulant activity (in words) [1]: good procoagulant activity
- EC50 ([1]; 1 pM hTF, 4 μM PL): 2.4 µg/mL

Molecule: α-cyclodextrin
- procoagulant activity (in words) [1]: substantial procoagulant activity

The next lines start with results.

- EC50 ([1]; 1 pM hTF, 4 μM PL): 13.5 µg/mL (≈ 26.8 µM)
Molecule: OC[C@H]1O[C@@](CO)(O[C@H]2O[C@H](CO)[C@@H](O)[C@H](O)[C@H]2O)[C@@H](O[C@H]2O[C@H](CO)[C@@H](O)[C@H](O)[C@H]2O)[C@@H]1O [melezitose]

- EC50 ([1]; 1 pM hTF, 4 μM PL): 7.4 µg/mL (≈ 14.7 µM)
Molecule: OC[C@H]1O[C@H](OC[C@H]2O[C@H](O[C@]3(CO)O[C@H](CO)[C@@H](O)[C@@H]3O)[C@H](O)[C@@H](O)[C@@H]2O)[C@H](O)[C@@H](O)[C@H]1O [raffinose]

- EC50 ([1]; 1 pM hTF, 4 μM PL): 5.0 µg/mL
Molecule: Maltotetraose
- procoagulant activity (in words) [1]: substantial procoagulant activity

- EC50 ([1]; 1 pM hTF, 4 μM PL): 20.6 µg/mL
Molecule: Maltotriose

- EC50 ([1]; 1 pM hTF, 4 μM PL): 2.3 µg/mL
Molecule: stachyose
- procoagulant activity (in words) [1]: substantial procoagulant activity

- EC50 ([1]; 1 pM hTF, 4 μM PL): 0.1 µg/mL
Molecule: sulfated xylan [sulfated xylan (14.7% S, 22 kD)]
- procoagulant activity (in words) [1]: procoagulant at low concentrations
- procoagulant at (concentration) ([1]; 37° C., 1 pM hTF, 4 μM PL): about 0.01 μg/mL
- procoagulant activity (in words) ([1]; listed as Sulfated xylan): good procoagulant activity in CAT assays at very low concentrations

- EC50 TFPI-dPT [3]: 0.08 µg/mL
- activation of the contact pathway (in words) [5]: No activation of the contact pathway
- concentration activating the contact pathway [5]: > 33000 ng/mL
- EC50 ([1]; 1 pM hTF, 4 μM PL): 1.8 µg/mL
- EC50 ([1]; 1 pM hTF, 4 μM PL, listed as sulfated β-cyclodextrin): 0.7 µg/mL
- EC50 ([1]; 1 pM hTF, 4 μM PL, listed as β-cyclodextrin): about 2 μg/mL
Molecule: sulfated β-cyclodextrin [β-Cyclodextrin (Sigma)]
- reversal of the effect of rec. FL-TFPI (in words) [3]: reverses the effect of rec. FL-TFPI in plasma
- restoration of coagulation (in words) [4]: restore coagulation parameters of FVIII-inhibited whole blood
- restoration of coagulation (in words) ([4]; listed as sulfated β-cyclodextrin (18.9% S)): restores coagulation to normal in FVIII-inhibited blood
- Ratio aPTT/CAT [2]: 5.1
- anticoagulant activity (in words) [2]: become anticoagulant within their procoagulant window
- 50% Increase Clotting Time [2]: 3.6 µg/mL
- procoagulant activity (in words) ([1]; listed as sulfated β-cyclodextrin): good procoagulant activity
- procoagulant activity (in words) ([1]; listed as β-cyclodextrin): substantial procoagulant activity

- EC50 ([1]; 1 pM hTF, 4 μM PL): 4.8 µg/mL
Molecule: xylohexaose
